According to patent US10844062B2, “Pyridine derivative inhibiting RAF kinase and vascular endothelial growth factor receptor, method for preparing same, pharmaceutical composition containing same, and use thereof” (SAMJIN PHARMACEUTICAL CO., LTD., priority 2016, dated 2020):
Where two headings read alike, the source gives them in different places.

How the values were obtained:
B-Raf = B-Raf (Homo sapiens (Human), UniProt P15056); experiment: Raf kinase inhibitory activity (Raf/MEK1/MAPK2 cascade, MBP phosphorylation, 32P); format: biochemical
Sequence of B-Raf (P15056 whole entry): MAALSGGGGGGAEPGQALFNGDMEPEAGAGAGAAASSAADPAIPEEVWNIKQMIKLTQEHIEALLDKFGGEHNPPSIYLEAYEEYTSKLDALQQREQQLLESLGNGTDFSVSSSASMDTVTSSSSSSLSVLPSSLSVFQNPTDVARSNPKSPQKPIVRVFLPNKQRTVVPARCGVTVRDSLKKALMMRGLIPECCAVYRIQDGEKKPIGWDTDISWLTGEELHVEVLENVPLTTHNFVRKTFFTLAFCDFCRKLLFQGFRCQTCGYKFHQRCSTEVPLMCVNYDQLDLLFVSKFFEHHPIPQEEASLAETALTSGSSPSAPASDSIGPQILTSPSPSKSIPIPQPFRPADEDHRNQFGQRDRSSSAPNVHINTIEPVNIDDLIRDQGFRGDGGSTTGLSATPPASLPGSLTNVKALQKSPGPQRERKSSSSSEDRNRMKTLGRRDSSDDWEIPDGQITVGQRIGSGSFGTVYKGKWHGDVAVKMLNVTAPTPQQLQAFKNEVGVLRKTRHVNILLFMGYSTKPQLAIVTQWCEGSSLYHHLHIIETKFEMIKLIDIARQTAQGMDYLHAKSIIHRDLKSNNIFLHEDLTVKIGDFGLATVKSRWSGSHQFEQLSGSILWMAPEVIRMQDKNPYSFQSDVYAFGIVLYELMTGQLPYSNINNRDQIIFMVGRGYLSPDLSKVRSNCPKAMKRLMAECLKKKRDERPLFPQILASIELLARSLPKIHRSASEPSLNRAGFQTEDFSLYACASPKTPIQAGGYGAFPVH
Protocol: (§1) In order to examine the inhibitory activities of the compounds of the present invention against Raf kinases (B-Raf, C-Raf, B-Raf^V600E), the following experiment was performed.
(§2) (1) Consecutive Signal Transduction Reaction
(§3) To a centrifugation tube, 20 μl of a dilution solvent (20 mM MOPS, pH 7.2, 25 mM (3-glycerol phosphate, 5 mM EGTA, 1 mM sodium orthovanadate, 1 mM dithiothreitol) and 20 μl of a Mg/ATP mixture (500 μM ATP and 75 mM magnesium chloride) were added. Then, each of the derivative compounds of formula 1 was added. As a control, 1 ng of activated raf, 0.4 ng of inactivated MEK1 and 1 μg of inactivated MAPK2 were added without adding Example compounds. The solutions in the tube were concentrated at the bottom of the tube by centrifugation, and then allowed to react at 30° C. for 30 minutes, and 4 μl of the mixture solution was taken and used in the next experimental step.
(§4) (2) Phosphorylation of Substrate Protein MBP by MAPK2
(§5) To 4 μl of the mixture solution taken in (1), 10 μl of a dilution solvent, 20 μg of MBP as a substrate, and 10 μl of diluted [γ-32P]ATP (1 μCi/μL) were added. The solutions in the tube were concentrated at the bottom of the tube by centrifugation, and then allowed to react at 30° C. for 30 minutes. 25 μl of the reaction solution was carefully placed on the center of 2 cm×2 cm P81 filter paper for 30 seconds. Next, the filter paper was washed three times with 0.75% phosphoric acid solution for 10 minutes each time and washed once with acetone for 5 minutes. Next, the filter paper was transferred into a scintillation vial, and 5 ml of a scintillation cocktail was added thereto. Raf activity inhibition rate (IC50) was measured by reading the radioactivity with a scintillation counter in comparison with the control.

B-Raf V600E = B-Raf V600E (Homo sapiens (Human), UniProt P15056, V600E); experiment: as above; format: biochemical
Sequence of B-Raf V600E (P15056 whole entry V600E): as the sequence (P15056 whole entry) above, with V600E counted along it
Protocol: as §1, §2, §3, §4, §5

C-Raf = C-Raf (Homo sapiens (Human), UniProt P04049); experiment: as above; format: biochemical
Sequence of C-Raf (P04049 whole entry): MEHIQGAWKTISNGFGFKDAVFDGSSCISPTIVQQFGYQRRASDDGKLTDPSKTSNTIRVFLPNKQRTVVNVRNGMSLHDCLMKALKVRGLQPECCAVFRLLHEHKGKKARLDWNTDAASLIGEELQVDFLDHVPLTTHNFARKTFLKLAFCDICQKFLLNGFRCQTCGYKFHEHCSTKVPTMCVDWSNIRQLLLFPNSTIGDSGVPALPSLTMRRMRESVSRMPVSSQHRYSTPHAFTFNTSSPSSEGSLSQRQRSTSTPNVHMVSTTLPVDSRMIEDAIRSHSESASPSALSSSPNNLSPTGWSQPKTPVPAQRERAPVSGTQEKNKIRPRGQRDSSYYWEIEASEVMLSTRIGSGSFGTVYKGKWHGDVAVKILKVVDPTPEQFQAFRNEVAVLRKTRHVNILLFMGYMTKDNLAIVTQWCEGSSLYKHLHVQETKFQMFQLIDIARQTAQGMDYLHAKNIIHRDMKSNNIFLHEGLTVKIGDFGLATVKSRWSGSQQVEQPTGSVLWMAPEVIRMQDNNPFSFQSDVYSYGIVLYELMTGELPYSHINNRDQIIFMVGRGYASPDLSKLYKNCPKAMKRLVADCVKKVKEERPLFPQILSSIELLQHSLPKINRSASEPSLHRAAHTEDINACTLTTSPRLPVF
Protocol: as §1, §2, §3, §4, §5

LS513 KRAS G12V (colon) = experiment: MTT assay; format: cell-based; settings: Homo sapiens, LS-513, 72 h, 3 days incubation, read-out: MTT assay IC50 KRAS mutant (Colon) LS513 KRAS G12V
How it was run: (§6)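 Cells were seeded at line-dependent density and stabilised overnight at 37 °C, then exposed to compounds for 3 days at 37 °C. MTT was then added for 2 h and the formazan dissolved in DMSO.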

[1] = test system: LS513 human colorectal cancer cell line xenograft; experiment: Antitumor effect on human colorectal cancer LS513 cell line xenograft; format: in vivo, Balb/c nu/nu nude mice; settings: oral, twice a day, 60 mg/kg or 30 mg/kg (dose not specified per compound), 14 days
Source text: In this experiment, 5 to 6-week-old female Balb/c nu/nu nude mice (weighed 18 to 20 g) were used. The mice were provided from Nara Biotech Co., Ltd. During the experiment, all the animals were housed on a mouse constant temperature/constant humidity shelf (Individually Ventilated Cages System, LAB & BIO).
Each cage (37.2 cm length×19.2 cm width×13.1 cm height) was sterilized with a sterilizer, and eight mice were received in each cage. The mice were maintained in a hygienic environment controlled to a temperature of 20 to 24° C. and a humidity of 40 to 70% with a 12-hr light/12-hr dark cycle. The mice were allowed to access sterilized feed and drinking water ad libitum. The care and treatment of these animals were carried out according to the Laboratory Animal Care Guidelines of Samjin Pharmaceutical Co., Ltd.
The mice were acclimated to the housing facility for 1 week, and then 0.1 mL of a cell suspension containing 1×10^7 cells was injected subcutaneously into the right flank of each mouse. After cell transplantation, the volume of the formed tumor was measured, and mice with formed tumors having a volume of 150 mm^3 or more were randomly divided into groups (each consisting of 7 to 8 animals) for treatment with the test compounds and a control. […] Administration of the drugs was continued for 14 days. […] At 3-day intervals from the starting day of the administration, the long axis and short axis of the tumor were measured with digital vernier calipers, and the tumor volume was calculated using the following equation and recorded: Tumor volume (TV)=Long axis×short axis^2/2.
Tumor growth inhibition for absolute tumor volume was calculated using the following equation. In the following equation, V0 is the tumor volume on the first day of drug administration (day 0), and Vt is the tumor volume after last drug administration.

WiDR BRAF V600E (colon) = experiment: MTT assay; format: cell-based; settings: Homo sapiens, 72 h, Table 5, 3 days incubation, read-out: MTT assay IC50 BRAF mutant (Colon) WiDR BRAF V600E
How it was run: as §6

[2] = test system: LS513 human colorectal cancer cell line xenograft; experiment: Antitumor effect on human colorectal cancer LS513 cell line xenograft; format: in vivo, Balb/c nu/nu nude mice; settings: 50 mg/kg, oral, once a day, 13 days

| Compound | IC50 (LS513 KRAS G12V (colon); Table 4) [nM] | other results |
| --- | --- | --- |
| CC(C)(C#N)c1cc(F)cc(C(=O)Nc2cc(Nc3ncccc3-c3ncnc4[nH]cnc34)ccc2F)c1 [Example 33, N-(5-(3-(9H-Purin-6-Yl)Pyridin-2-Ylamino)-2-Fluorophenyl)-3-(2-Cyanopropan-2-Yl)-5-Fluorobenzamide] | 199 | IC50 (B-Raf): 94 nM; IC50 (B-Raf V600E): 33 nM; IC50 (C-Raf): 24 nM; antitumor effect (tumor growth inhibition) compared to the vehicle control [1]: 96.0% |
| Cc1cn(-c2cc(NC(=O)Nc3ccc(F)c(Nc4ncccc4-c4ncnc5[nH]cnc45)c3F)cc(C(F)(F)F)c2)cn1 [Example 59, 1-(3-(3-(9H-Purin-6-Yl)Pyridin-2-Ylamino)-2,4-Difluorophenyl)-3-(3-(4-Methyl-1H-Imidazol-1-Yl)-5-(Trifluoromethyl)Phenyl)Urea] | 2140 | antitumor effect (tumor growth inhibition) compared to the vehicle control [1]: 83.51% |
| CCN1CCN(Cc2ccc(NC(=O)Nc3ccc(F)c(Nc4ncccc4-c4ncnc5[nH]cnc45)c3F)cc2C(F)(F)F)CC1 [Example 60, 1-(3-(3-(9H-Purin-6-Yl)Pyridin-2-Ylamino)-2,4-Difluorophenyl)-3-(4-((4-Ethylpiperazin-1-Yl)Methyl)-3-(Trifluoromethyl)Phenyl)Urea] | > 10000 | antitumor effect (tumor growth inhibition) compared to the vehicle control [1]: 69.06% |
| COc1cc(C(=O)Nc2cc(Nc3ncccc3-c3ncnc4[nH]cnc34)ccc2F)cc(C(F)(F)F)c1 [Example 63, N-2-Fluoro-5-[3-(9H-Purin-6-Yl)Pyridin-2-Ylamino)Phenyl-3-Methoxy-5-(Trifluoromethyl)Benzamide] | 690 | antitumor effect (tumor growth inhibition) compared to the vehicle control [1]: 57.9% |
| Cc1cc(C(=O)Nc2cc(Nc3ncccc3-c3ncnc4[nH]cnc34)ccc2F)cc(C(F)(F)F)c1 [Example 139, N-5-[(3-(9H-purin-6-yl)pyridin-2-yl)amino]-2-fluorophenyl-3-methyl-5-(trifluoromethyl)benzamide] | 99 | IC50 (LS513 KRAS G12V (colon); Table 5): 96 nM; IC50 (WiDR BRAF V600E (colon)): 116 nM; antitumor effect (tumor growth inhibition) [2]: 91.04% |
| O=C(Nc1cc(Nc2ncccc2-c2ncnc3[nH]cnc23)ccc1F)c1cc(C(F)(F)F)ccn1 [Example 144, N-5-[(3-(9H-purin-6-yl)pyridin-2-yl)amino]-2-fluorophenyl-4-(trifluoromethyl) picolinamide] | 444 | – |
| Cc1cccc(C(=O)Nc2cc(Nc3ncccc3-c3ncnc4[nH]cnc34)ccc2F)c1 [Example 145, N-5-[(3-(9H-purin-6-yl)pyridin-2-yl)amino]-2-fluorophenyl-3-methylbenzamide] | 1030 | – |
| O=C(Nc1cc(Nc2ncccc2-c2ncnc3[nH]cnc23)ccc1F)c1cccc(Cl)c1 [Example 146, N-5-[(3-(9H-purin-6-yl)pyridin-2-yl)amino]-2-fluorophenyl-3-chlorobenzamide] | 1700 | – |
| O=C(Nc1cc(Nc2ncccc2-c2ncnc3[nH]cnc23)ccc1F)c1ccc(Cl)c(OC(F)(F)F)c1 [Example 147, N-5-[(3-(9H-purin-6-yl)pyridin-2-yl)amino]-2-fluorophenyl-4-chloro-3-(trifluoromethoxy)benzamide] | 502 | – |
| O=C(Nc1cc(Nc2ncccc2-c2ncnc3[nH]cnc23)ccc1F)c1ccnc(C(F)(F)F)c1F [Example 148, N-5-[(3-(9H-purin-6-yl)pyridin-2-yl)amino]-2-fluorophenyl-3-fluoro-2-(trifluoromethyl)isonicotinamide] | 529 | – |
| O=C(Nc1cc(Nc2ncccc2-c2ncnc3[nH]cnc23)ccc1F)c1cncc(C(F)(F)F)c1 [Example 149, N-5-[(3-(9H-purin-6-yl)pyridin-2-yl)amino]-2-fluorophenyl-5-(trifluoromethyl)nicotinamide] | 890 | – |
| COc1ccc(C(=O)Nc2cc(Nc3ncccc3-c3ncnc4[nH]cnc34)ccc2F)cc1OC(F)(F)F [Example 150, N-5-[(3-(9H-purin-6-yl)pyridin-2-yl)amino]-2-fluorophenyl-4-methoxy-3-(trifluoromethoxy)benzamide] | 250 | – |
| O=C(Nc1cc(Nc2ncccc2-c2ncnc3[nH]cnc23)ccc1F)c1ccnc(C(F)(F)F)c1 [Example 151, N-5-[(3-(9H-purin-6-yl)pyridin-2-yl)amino]-2-fluorophenyl-2-(trifluoromethyl)isonicotinamide] | 350 | – |
| COc1ccc(NC(=O)c2cccc(C(C)(C)C#N)c2)cc1Nc1ncccc1-c1ncnc2[nH]cnc12 [Example 152, N-3-[(3-(9H-purin-6-yl)pyridin-2-yl)amino]-4-methoxyphenyl-3-(2-cyanopropan-2-yl)benzamide] | 2960 | – |
| Cc1ccc(NC(=O)c2cccc(C(C)(C)C#N)c2)cc1Nc1ncccc1-c1ncnc2[nH]cnc12 [Example 153, N-3-[(3-(9H-purin-6-yl)pyridin-2-yl)amino]-4-methylphenyl-3-(2-cyanopropan-2-yl)benzamide] | 447 | – |
| CC(C)(C#N)c1cc(C(=O)Nc2cc(Nc3ncccc3-c3ncnc4[nH]cnc34)ccc2F)cc(C(F)(F)F)c1 [Example 154, N-5-[(3-(9H-purin-6-yl)pyridin-2-yl)amino]-2-fluorophenyl-3-(2-cyanopropan-2-yl)-5-(trifluoromethyl)benzamide] | 326 | IC50 (LS513 KRAS G12V (colon); Table 5): 326 nM; IC50 (WiDR BRAF V600E (colon)): 97 nM; antitumor effect (tumor growth inhibition) [2]: 83.19% |
| Cc1cc(C(=O)Nc2cc(Nc3ncccc3-c3ncnc4[nH]cnc34)ccc2F)cc(C(C)(C)C#N)c1 [Example 155, N-5-[(3-(9H-purin-6-yl)pyridin-2-yl)amino]-2-fluorophenyl-3-(2-cyanopropan-2-yl)-5-methylbenzamide] | 145 | – |
| COc1cc(C(=O)Nc2cc(Nc3ncccc3-c3ncnc4[nH]cnc34)ccc2F)c(Br)c(C(C)(C)C#N)c1 [Example 156, N-5-[(3-(9H-purin-6-yl)pyridin-2-yl)amino]-2-fluorophenyl-2-bromo-3-(2-cyanopropan-2-yl)-5-methoxybenzamide] | 517 | – |
| N#Cc1cc(C(=O)Nc2cc(Nc3ncccc3-c3ncnc4[nH]cnc34)ccc2F)cc(C(F)(F)F)c1 [Example 157, N-5-[(3-(9H-purin-6-yl)pyridin-2-yl)amino]-2-fluorophenyl-3-cyano-5-(trifluoromethyl)benzamide] | 464 | – |
| O=C(Nc1cc(Nc2ncccc2-c2ncnc3[nH]cnc23)ccc1F)c1cc(Br)cc(C(F)(F)F)c1 [Example 158, N-5-[(3-(9H-purin-6-yl)pyridin-2-yl)amino]-2-fluorophenyl-3-bromo-5-(trifluoromethyl)benzamide] | 283 | – |
